Assay results from BigSolDB 2.1.

O=C1NS(=O)(=O)c2ccccc21
solubility (mole fraction)
Details	293.15 K	298.15 K	303.15 K	308.15 K	313.15 K	318.15 K	323.15 K
in acetonitrile	0.00739	0.00809	0.00936	0.0105	0.012	0.0143	0.0157
in ethanol	0.00821	0.00924	0.0108	0.0121	0.0144	0.0169	0.0196
in isopropanol	0.00792	0.00942	0.011	0.013	0.016	0.0193	0.0231
in methanol	0.00927	0.0102	0.012	0.0136	0.0161	0.0187	0.0218
